These results are taken from patent US20220387466A1, “COMPOUNDS AND PHARMACEUTICAL COMPOSITIONS FOR PREVENTION AND/OR TREATMENT OF DYSBIOSIS AND ANTIBACTERIAL ANTIDOTES FOR MICROBIOME-PROTECTION” (priority 2019, published 2022).

Test [1] deals with B. vulgatus. Briefly: 8x8 checkerboard assay for anaerobic commensals (antibiotic vs antagonist). It counts as cell-based, Bacteroides vulgatus. Conditions: for rescue of B. vulgatus growth from erythromycin: combination with erythromycin. From the text: (§1) Checkerboard assays for anaerobic commensals: Validated antagonists were further investigated in 8×8 checkerboard assays, where both antibiotics and antagonists were titrated against each other. Such assays were first performed for the commensals that were originally screened (i. e. B. vulgatus and B. uniformis—4 replicates) and later expanded towards 6 further gut microbes (B. caccae, B. fragilis NT, B. ovatus, B. thetaiotaomicron, P. copri, P. distasonis—2 replicates). For vertical gradients, 2-fold serial dilutions of the antagonists were prepared first in 100× in DMSO and diluted in MGAM as described above (section ‘Validation of microbiome-protective antagonists’). Horizontal antibiotic dilution series were freshly prepared in MGAM at 4× final concentration in equidistant concentration steps. Both, vertical and horizontal dilution series were combined (50 μl of the antagonist gradients (2×) and 25 μl of the antibiotic gradients (4×)) in 96 well plates. Plates were pre-reduced under anaerobic conditions overnight, inoculated with 25 μl of diluted overnight culture (at 4× starting OD) and sealed with breathable membrane (Breathe-Easy®). Bacterial growth was monitored once per hour for 24 hours after 30 sec linear shaking (Eon+Biostack 4, Biotek) under anaerobic conditions. Growth curves were converted into normalized AUCs as described using in-plate controls to define unperturbed growth.

Test [2] concerns B. vulgatus. The experiment in a line: Validation of microbiome-protective antagonists (concentration-dependent growth rescue). It counts as cell-based, Bacteroides vulgatus. Conditions: antagonist gradient, normalized AUC >0.25 = growth rescue. The protocol: Validation of microbiome-protective antagonists: In a first step, the inventors kept the erythromycin/doxycycline concentration constant (0.625 μM for erythromycin, 0.078 μM (B. vulgates)/0.039 μM (B. uniformis) for doxycycline) and tested concentration gradients of the potential antagonists with ranges depending on the antagonist's solubility. Compounds were purchased from independent vendors and dissolved at 100× starting concentration in DMSO. Eight 2-fold serial dilutions were prepared in 96-well plates with each row containing a different antagonist, sufficient control DMSO wells and wells with just the respective antibiotic (‘antibiotic-only’ control). These master plates were diluted in MGAM medium (50 μl) to 2×assay concentration and 25 μl freshly prepared antibiotic solution (4× test concentration) was added. Plates were pre-reduced overnight in an anaerobic chamber and inoculated with 25 μl of overnight cultures (prepared as described under “Growth conditions”) to reach a starting OD578 of 0.01 and 1% DMSO concentration. Growth was monitored hourly for 24 h after 30 sec of linear shaking. Experiments were performed in biological triplicates. For analysis, growth curves were converted into normalized AUCs (see above). The inventors accounted for residual growth in the presence of the antibiotic by subtracting the median normalized AUCs of the ‘antibiotic-only’ control per plate.

Another test deals with Streptococcus pneumoniae. Briefly: Antagonist concentration gradients at constant antibiotic concentration, aerobic. It is filed as cell-based. The protocol:
(§2) Checkerboard assays for pathogens under aerobic conditions: For three pathogens (S. aureus Newman ATCC 13420, S. aureus subsp. aureus Rosenbach 1884 DSM20231 and E. faecium ATCC19434) 8×8 checkerboard assays were performed in transparent 384 well plates (Greiner BioOne GmbH), with each well containing 30 μl (50 μl for S. pneumoniae) in total. S. aureus strains were grown in tryptic soy broth, E. faecium in BHI medium. Antagonistic drug concentrations were 2-fold distant. Cell were inoculated at initial OD595 nm 0.01 from an overnight culture. Plates were sealed with breathable membranes (Breathe-Easy), incubated at 37° C. (Cytomat 2, Thermo Scientific) with continuous shaking and OD595 nm was measured every 30 minutes for 16 hours in a Filtermax F5 multimode plate reader (Molecular Devices). Growth was evaluated at the transition to stationary phase (9 hours for S. aureus, 12 hours for E. faecium). All experiments were done at least in 2 biological replicates and 2 technical replicates. For S. pneumoniae […], the inventors only tested concentration gradients of the potential antagonists in constant concentration of the antibiotics in BHI medium.

Test [3] deals with seven-member synthetic community including the pathogen E. faecalis. The experiment in a line: E. faecalis-containing synthetic community, community growth AUC (Example 7). It counts as cell-based. The text has this:
(§3) Heat maps show median area under the growth curve (AUC) of the seven-member synthetic community including the pathogen E. faecalis. The numbers within the heat map represent the total number of all E. faecalis viable cells for each erythromycin-antidote combination as determined by enumerating of E. faecalis colony forming units after plating on selective medium. All drug concentrations are in μM. n. d.=not detectable.
(§4) The inventors exposed synthetic communities that contained the intestinal gut pathogen E. faecalis to erythromycin, and evaluated rescue of gut commensals and simultaneous killing of the pathogen in the presence of antidotes.

Test [4] deals with synthetic gut commensal community of seven human gut commensals. The experiment in a line: Synthetic gut commensal community growth with macrolide and antidote (Example 5). It counts as cell-based. Particulars: erythromycin and azithromycin. From the text:
Heat maps depict area under the growth curve (AUC) of a synthetic community consisting of seven human gut commensals. Shown is the median AUC of three individual replicates. All drug concentrations are in μM.
So far, antidote effects have only been analyzed in single or pure cultures. However, the human gut microbiome is a complex community of many different bacterial taxa that is usually not adequately mimicked in monocultures.

The test system of test [5] is species of the order Bacteroidales. Briefly: Antidote vs azithromycin across seven gut Bacteroidales (Example 4). It counts as cell-based. Conditions: combination with azithromycin. The protocol: The antidotes dicumarol (first column), benzbromarone (second column) and tolfenamic acid (third column) were tested for their efficacy in antagonizing the macrolide antibiotic azithromycin across seven prevalent and abundant gut Bacteroidales (B. vulgatus, B. fragilis NT, B. thetaiotaomicron, P. copri, B. caccae, B. ovatus, P. distasonis). […] All drug concentrations are in μM.
In particular, they aimed at testing, whether these antidotes can also protect from other macrolides such as azithromycin, a clinically more relevant antibiotic.

For test [6], the system named is E. faecium. Briefly: Antidote with macrolide on enterococci (Example 6). It is filed as cell-based.
Test [7] deals with E. faecalis. Briefly: Antidote with macrolide on enterococci (Example 6). It is filed as cell-based, Enterococcus faecalis. From the text: Heat maps show median area under the growth curve (AUC) of three biologically independent replicates. […] All drug concentrations are in μM.
Here, the inventors expanded testing towards additional antidotes, and included the intestinal human pathogen Enterococcus faecalis.

In test [8] the test system is B. vulgatus. Briefly: Prestwick library screen for microbiome-protective antibiotic antagonists (growth AUC z-scores). It counts as cell-based, Bacteroides vulgatus. Particulars: z-score of normalized growth AUC, two replicates.
Test [9] deals with E. faecalis. The experiment in a line: E. faecalis-containing synthetic community, E. faecalis CFU on selective medium (Example 7). It counts as cell-based, Enterococcus faecalis.
Text: as §3, §4

In test [10] the test system is abundant gut commensal species. Briefly: Checkerboard assays on further abundant gut commensals. Conditions: for tested abundant gut commensal species whose growth is rescued: antidote 5-40 μm, clinically relevant erythromycin concentrations; for counteracting erythromycin on other abundant gut commensals: checkerboard with erythromycin. It is filed as cell-based.
Text: as §1

The test system of a further test is Staphylococcus aureus. The experiment in a line: Checkerboard assays for pathogens under aerobic conditions. Conditions: for effect on the potency of erythromycin: Staphylococcus aureus, aerobic. It is filed as cell-based. The method, then:
as §2

In the next test the test system is Staphylococcus. Particulars: cited from earlier work.
Another test concerns S. pneumoniae. Conditions: cited from earlier work.
The test system of test [11] is Streptococcus groups A, B, C & G. Conditions: cited from earlier work.
Another test concerns B. uniformis. The experiment in a line: Growth curves and time-lapse microscopy under erythromycin. It counts as cell-based, Bacteroides uniformis. Conditions: 15 μg/ml erythromycin (5-fold MIC), time-lapse microscopy. The method, then: (§5) Microscopy: For live/dead imaging, stained cells were washed twice in 0.85% NaCl before being spotted on 0.85% NaCl+1% agarose pads between a glass slide and a coverslip. For time-lapse imaging, cells were precultured as described in the growth conditions section. […] Slides were sealed with valap and taken outside of the chamber for imaging. The imaging was performed using a Nikon Eclipse Ti inverted microscope, equipped with a Nikon DS-Qi2 camera, a Nikon Plan Apo Lambda 60× oil Ph3 DM phase contrast objective and a Nikon HC mCherry filter set (Ex 562/40; DM 593; BA 641/75) to detect propidium iodide fluorescence. Images were acquired with the NIS-Elements AR4.50.00 software and processed with Fiji v.2.0.0-rc-68/1.52 h.
(§6) Growth curves: Cells were precultured as described in the growth conditions section. Then, cells were diluted to an OD578=0.01 in a 96-well plate sealed with a breathable membrane (Breathe-Easy®) and grown for 2 h. Next, erythromycin was added to the culture to a final concentration of 15 μg/ml (5-fold MIC) and growth curves were acquired for 20 h using a microplate spectrophotometer (EON, Biotek) by measuring the OD578 every hour after 30 sec of linear shaking.

Test [12] deals with B. vulgatus. Described as above. It is filed as cell-based, Bacteroides vulgatus. Particulars: 15 μg/ml erythromycin (5-fold MIC), time-lapse microscopy. The protocol:
as §5, §6

In test [13] the test system is E. faecium. Briefly: Checkerboard assays for pathogens under aerobic conditions. It counts as cell-based. The protocol: as §2
The mark [14] stands for this setting: erythromycin 1.15 μM + 40 μM dicumarol or 20 μM benzbromarone.
Setting [15] is: Erythromycin 0.625 μM + 20 μM drug.

≈ marks a conversion by molar mass, not a printed value. Entries after “also recorded” stand apart in the source; their conditions may differ.

Consider `O=c1oc2ccccc2c(O)c1Cc1c(O)c2ccccc2oc1=O` [Dicumarol, 3,3′-Methylene-bis(4-hydroxycoumarin)], for which the “rescue of B. vulgatus growth from erythromycin” value in the test on B. vulgatus [1] is reported as “rescued; also recorded: can rescue the growth”. Besides, the Validation entry with B. vulgatus [2] (Erythromycin 0.625 μM constant) is reported as “TRUE”. Also, the “effect on the potency of erythromycin” value in the test with Streptococcus pneumoniae and with Staphylococcus aureus was “did not affect the potency” in each case. In addition, the “community growth (AUC)” value in test [3] (setting [14]) is recorded as “the community is rescued”. Also, in test [3] (erythromycin + antidote), the “rescue of the community despite erythromycin treatment” value was “rescue of the community”. The “protection (growth rescue) of synthetic gut commensal community from macrolide antibiotics” value in [4] is listed as “can be Protected”. Moreover, the “protection of Bacteroidales species from azithromycin” value in [5] is reported as “can be Protected”. In addition, the “rescue from erythromycin or azithromycin treatment” value in the test with E. faecium [6] and in the test with E. faecalis [7] was “Neither dicumarol nor benzbromarone or tolfenamic acid could rescue” throughout. Further, the Mean z-score in the test on B. vulgatus [8] (setting [15]) is 7.313. Further, the E. faecalis counts entry in the test with E. faecalis [9] (setting [14]) is listed as “drop/are still found at below the detection limit”. Further, the “E. faecalis cells in community under erythromycin + antidote” value with E. faecalis [9] (erythromycin + antidote) is recorded as “efficiently inhibited”. Also, the “tested abundant gut commensal species whose growth is rescued” value in test [10] was 5/7. For the same molecule, the “counteracting erythromycin on other abundant gut commensals” value in test [10] was “able to counteract erythromycin on several species”.
As to `CC[C@H]1OC(=O)[C@H](C)[C@@H](O[C@H]2C[C@@](C)(OC)[C@@H](O)[C@H](C)O2)[C@H](C)[C@@H](O[C@@H]2O[C@H](C)C[C@H](N(C)C)[C@H]2O)[C@](C)(O)C[C@@H](C)C(=O)[C@H](C)[C@@H](O)[C@]1(C)O` [Erythromycin, erythromycin], the MIC breakpoint with Staphylococcus was 1 µg/mL (≈ 1.36 µM); in the test with S. pneumoniae, 0.25 µg/mL (≈ 0.341 µM); in test [11] it was 0.25 µg/mL (≈ 0.341 µM). The “community growth (AUC)” value in test [3] (erythromycin 1.15 μM alone) was “partially inhibited”. Also, the “cell morphology / lysis” value with B. uniformis was “cell shape defects, including blebbing, cytoplasmic shrinkage, and ultimately cell lysis”; in the test on B. vulgatus [12], “cell shape defects, including blebbing, cytoplasmic shrinkage, and ultimately cell lysis”. The “E. faecalis cells in the community” value in the test on E. faecalis [9] (erythromycin 1.15 μM alone) is ~9×10^5 cells.
With `Cc1c(Cl)cccc1Nc1ccccc1C(=O)O` [Tolfenamic acid], the “rescue of B. vulgatus growth from doxycycline” value in the test with B. vulgatus [1] (combination with doxycycline) is “able to protect”. In the test with B. vulgatus [1], the “rescue of B. vulgatus growth from erythromycin” value is listed as “able to protect; also recorded: can rescue the growth”. For the same molecule, the Validation result in the test with B. vulgatus [2] (Doxycycline 0.078 μM constant) and in the test on B. vulgatus [2] (Erythromycin 0.625 μM constant) was “TRUE” in each case. Further, the “effect on the potency of erythromycin” value with Streptococcus pneumoniae and in the test on Staphylococcus aureus was “did not affect the potency” in each case. Moreover, the “protection (growth rescue) of synthetic gut commensal community from macrolide antibiotics” value in test [4] is “can be Protected”. Also, in test [5], the “protection of Bacteroidales species from azithromycin” value is “can be Protected”. In addition, the “interaction with antibacterial effects of erythromycin/azithromycin” value in the test on E. faecium [6] and with E. faecalis [7] was “synergized” throughout. In addition, the “rescue from erythromycin or azithromycin treatment” value in the test with E. faecium [6] and in the test with E. faecalis [7] was “Neither dicumarol nor benzbromarone or tolfenamic acid could rescue” throughout. Moreover, the Mean z-score with B. vulgatus [8] (Doxycycline 0.08 μM + 20 μM drug) is on record as 4.000; with B. vulgatus [8] (setting [15]), 7.381. The “tested abundant gut commensal species whose growth is rescued” value in test [10] is 5/7. For the same molecule, the “counteracting erythromycin on other abundant gut commensals” value in test [10] was “able to counteract erythromycin on several species”. Further, the “drug interaction with erythromycin in checkerboard” value is “neutral interactions” in the test on E. faecium [13] and “neutral interactions” in the test with Staphylococcus aureus (S. aureus, aerobic conditions).
